Test results: patent US20210121482A1, “WITHANOLIDES FOR THE TREATMENT OF CACHEXIA” (University of Louisville Research Foundation, Inc., priority 2019, published 2021)

Columns and labels:
[1] = system: TA, GA and QF muscles; assay: Skeletal muscle weight and myofiber CSA (Example 1); assay type: in vivo, mice
Description: Histology and Morphometric Analysis of Skeletal Muscle: The tibialis anterior (TA), gastrocnemius (GA) and quadriceps femoris (QF) of the mice were isolated, flash frozen in liquid nitrogen, mounted in OCT embedding medium, and then sectioned using a microtome cryostat. To assess tissue morphology, 10 μm thick transverse sections were cut from the mid-belly of the muscle and then subjected to hematoxylin and eosin (H&E) staining. Images of H&E-stained TA/GA/QF muscle sections were quantified using Image J and/or Fiji software to measure myofiber cross-sectional area (CSA). Myofiber CSA was calculated by analyzing ˜350-500 myofibers per muscle.

[2] = system: satellite cells; assay: Satellite cell IHC (Pax7, MyoD, Laminin) in TA muscle; assay type: in vivo, mice
Experimental: Due to the role of WFA in inhibiting canonical NF-κ B signaling and the effect ovarian cancer has on this signaling pathway, WFA and the xenograft model were tested to measure induction or activation of satellite cells. The TA muscle was subjected to immunofluorescent immunohistochemical (IHC) staining for Pax7 (a marker of satellite cells), MyoD (a marker of myogenic differentiation), and Laminin (a marker of the basal lamina) (FIG. 15A). As accurate IHC detection of satellite cells can be challenging, individual color channels were compared against negative control slides to optimize visualization of satellite cells, minimize nonspecific background staining, and rule out false positives (Pax7^+/DAPI− cells) (37).
Initially, the number of satellite cells per field (normalized by the number of Laminin+ myofibers) was quantified to assess whether the model of ovarian cancer or WFA treatment affected the satellite cell population at large. […] There was a significant increase in the amount of Pax7+ cells in the tumor-bearing vehicle-treated group (0.34±0.01) compared to the tumor-free vehicle-treated and tumor-free WFA 2 mg/kg groups, although there was a significant reduction compared to the tumor-free WFA 4 mg/kg group (p<0.0001 for all comparisons). […] A small, but statistically significant decrease in the tumor-bearing WFA 4 mg/kg group was observed compared to the tumor-bearing vehicle-treated group (p=0.0004). […] Due to the systemic nature of WFA treatment, the tumor-specific uptake of WFA may have diminished the effect observed on skeletal muscle with respect to satellite cell activation in the tumor-bearing animals compared to the tumor-free animals.
After assessing changes in the gross number of satellite cells, the myogenic status was assessed to determine if the satellite cells were functionally activated. Satellite cells that are Pax7+/MyoD− are self-renewing or returning to quiescence, whereas satellite cells that are Pax7+/MyoD+ have committed to the myogenic lineage and will facilitate in muscle repair (6, 38). […] It was not feasible to enumerate the population of Pax7−/MyoD+ cells in response to the xenografted cancer or WFA treatment due to experimental limitations. However, distinct populations of Pax7+/MyoD− and Pax7+/MyoD+ cells were present (FIGS. 15C and 15D).

[3] = system: gonadal fat pad; assay: Qualitative assessment of gonadal fat; assay type: in vivo, mice
Description: Ovarian cancer progression is often associated with the specific loss of the gonadal fat pad. Thus, an attempt was made to quantify the amount of adipose tissue present in the gonadal region at the time of tissue collection post-euthanization. The severe reduction in the gonadal fat pad rendered accurate measurement of gonadal adipose tissue improbable. Further, in some mice, there was a complete absence of gonadal fat.
1. When the ovaries were embedded in adipose tissue and not readily identifiable without dissection through the fat pad, the mouse was scored “Abundant”. All mice in the control group were deemed to have an abundant amount of gonadal fat, whereas the vehicle treated group had no gonadal fat present, consistent with published reports linking specific changes in the gonadal fat pad to the progression of ovarian cancer.
2. When adipose tissue was present but in such a scant quantity that we could not accurately quantify the mass, the amount of gonadal fat was marked as “Small Amount”.

[4] = system: ovarian cancer-induced cachexia; assay: Grip strength, tumor-free and tumor-bearing mice (Example 2); assay type: in vivo; conditions: terminal week
Experimental: Grip Strength Measurements: Before assessment, mice were weighed on a commercially available digital scale. Forepaw and total grip strength of mice were measured using a digital grip strength meter (Columbus Instruments, Columbus, Ohio, USA) and then normalized by total body weight. Before the beginning of the test, the mice were acclimatized for five minutes. The mouse was allowed to grasp the total paw pull-bar assembly, and in a separate experiment the forepaw pull-bar assembly. The mouse was then gently drawn with constant force in a straight line away from the device until the mouse could no longer grasp the bar. Force at time of release was recorded as the peak tension. Each mouse was tested five times with a delay of 20-40 seconds between each testing. The mean peak tension was calculated from the recordings normalized by total body weight.
Grip Strength Measurements: as in Example 1.

[5] = system: A2780 ovarian cancer xenograft; assay: Survival and tolerability, A2780 xenograft mice (Example 1)
Experimental: Tumor-bearing groups received an IP injection of 1.0×10^6 low passage A2780 cells suspended in 100 μl sterile PBS.
Graphical Display and Statistical Analyses: The majority of the results were expressed as box-and-whisker plots with the box comprised of the first, second, and third quartiles, and the lower and upper whiskers corresponding to the minimum and maximum values, respectively, to display the entire range of data. A Kaplan-Meier curve was used for the survival analysis. Statistical analysis of the data was performed using one-way analysis of variance (ANOVA) followed by Tukey's Honestly Significant Difference Test (HSDT) post hoc analysis or the Mantel-Cox log-rank test to determine statistically significant differences between groups with GraphPad Prism 8.0.1 software for Mac (La Jolla, Calif., USA). A value of P<0.05 was considered statistically significant, unless otherwise specified.

[6] = 2 and 6 mg/kg, vs control group
[7] = 2 and 6 mg/kg, vs vehicle treated group

CC1=C(CO)C(=O)O[C@@H]([C@@H](C)[C@H]2CC[C@H]3[C@@H]4C[C@H]5O[C@]56[C@@H](O)C=CC(=O)[C@]6(C)[C@H]4CC[C@]23C)C1 [WFA, (4β,5β,6β,22R)-4,27-Dihydroxy-5,6:22,26-diepoxyergosta-2,24-diene-1,26-dione]
normalized wet weight of gastrocnemius (GA) ([1]; 2 mg/kg, vs control group): significant reduction in normalized wet weight
myofibrillar CSA in GA muscle ([1]; 2 mg/kg, vs control group (p=0.09)): restoration of myofibrillar CSA
wet weight of quadriceps femoris (QF) ([1]; 6 mg/kg, vs control group): significant reduction in wet weight
restoration of myofibrillar CSA in GA muscle ([1]; 6 mg/kg, vs control group (p=0.007)): not those treated with 6 mg/kg of WFA
average myofiber CSA (TA and QF) [1, 6]: significant reduction in average myofiber CSA
normalized wet weight of tibialis anterior (TA) [1, 6]: significant reduction in normalized wet weight
average myofiber CSA (TA, GA, QF) [1, 7]: significantly greater than the vehicle treated group
normalized muscle weights (TA, GA, QF) [1, 7]: no difference between the vehicle and WFA treated groups
Pax7+ cells normalized by number of Laminin+ myofibers ([2]; tumor-bearing, WFA 2 mg/kg): 0.26±0.01
proportion of differentiating satellite cells (Pax7+/MyoD+) ([2]; tumor-bearing, WFA 2 mg/kg): 48.85±1.63%
proportion of proliferating satellite cells (Pax7+/MyoD−) ([2]; tumor-bearing, WFA 2 mg/kg): 51.15±1.63%
Pax7+ cells normalized by number of Laminin+ myofibers ([2]; tumor-bearing, WFA 4 mg/kg): 0.31±0.01
proportion of differentiating satellite cells (Pax7+/MyoD+) ([2]; tumor-bearing, WFA 4 mg/kg): 52.79±1.99%
proportion of proliferating satellite cells (Pax7+/MyoD−) ([2]; tumor-bearing, WFA 4 mg/kg): 47.21±1.99%
Pax7+ cells normalized by number of Laminin+ myofibers ([2]; tumor-free, WFA 2 mg/kg): 0.28±0.02
proportion of differentiating satellite cells (Pax7+/MyoD+) ([2]; tumor-free, WFA 2 mg/kg): 60.73±2.28%
proportion of proliferating satellite cells (Pax7+/MyoD−) ([2]; tumor-free, WFA 2 mg/kg): 39.27±2.28%
Pax7+ cells normalized by number of Laminin+ myofibers ([2]; tumor-free, WFA 4 mg/kg): 0.42±0.01
proportion of differentiating satellite cells (Pax7+/MyoD+) ([2]; tumor-free, WFA 4 mg/kg): 61.37±1.49%
proportion of proliferating satellite cells (Pax7+/MyoD−) ([2]; tumor-free, WFA 4 mg/kg): 38.63±1.49%
Gonadal Fat: Absent (mice scored/group) ([3]; WFA 2 mg/kg): 0
Gonadal Fat: Abundant (mice scored/group) ([3]; WFA 2 mg/kg): 0
Gonadal Fat: Present (mice scored/group) ([3]; WFA 2 mg/kg): 4/5
Gonadal Fat: Small Amount (mice scored/group) ([3]; WFA 2 mg/kg): 1/5
Gonadal Fat: Absent (mice scored/group) ([3]; WFA 6 mg/kg): 0
Gonadal Fat: Abundant (mice scored/group) ([3]; WFA 6 mg/kg): 0
Gonadal Fat: Present (mice scored/group) ([3]; WFA 6 mg/kg): 1/4
Gonadal Fat: Small Amount (mice scored/group) ([3]; WFA 6 mg/kg): 3/4
forelimb and total grip strengths ([4]; tumor-bearing mice, 2 and 4 mg/kg, vs tumor-bearing vehicle): significantly increased compared to the tumor-bearing vehicle-treated
total grip strength ([4]; tumor-free mice, 4 mg/kg, vs tumor-free vehicle): significantly improved the total grip strength of the tumor-free mice
forelimb grip strength ([4]; tumor-free mice, 2 and 4 mg/kg, vs tumor-free vehicle): significantly improved the forelimb grip strength of tumor-free mice
survival (Kaplan-Meier) ([5]; 2 mg/kg, vs WFA 6 mg/kg and vehicle treated groups): higher survival rate
toxicity of high dose ([5]; 6 mg/kg IP every three days, tumor-bearing NSG mice): may be a lethal dose
survival (Kaplan-Meier) ([5]; 6 mg/kg, vs vehicle treated group (p=0.06)): trend towards an increase in survival
